# Several values for one entry are separate records, joined by “and”; a condition that tells them apart may be missing. Equal entries are not always repeated.
# Experiments:
# [1] = test system: MLIs infected with AAV-hSyn-mGlu1^WT; experiment: sAP-mediated currents (firing rate) of MLIs infected with AAV-hSyn-mGlu1^WT; assay type: cell-based, mouse;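 as to Pd/CTL, AVE: 10 µM Pd complex applied to the bath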;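 as to Pd/CTL, individual MLIs: 10 µM Pd complex applied to the bath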;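 as to firing rate with Pd, AVE(Hz): 10 µM Pd complex applied to the bath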;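 as to number of sAP-mediated currents with Pd, AVE: 10 µM Pd complex applied to the bath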;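 as to number of sAP-mediated currents with Pd, individual MLIs: 10 µM Pd complex applied to the bath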
# Description: (§1) To monitor the excitability of MLIs, sAP-mediated current responses were extracellulary recorded by a loose cell-attached voltage-clamp at a holding potential of 0 mV. Glass electrodes used for cell-attached recordings had resistances of 3–5 MΩ when filled with ACSF. The current recordings from AAV-infected cells were performed 1−2 weeks after infection. The EPSCs and sAP-mediated currents were recorded using an Axopatch 200B amplifier (Molecular Devices), and the pClamp system (version 9.2; Molecular Devices) was used for data acquisition and analysis. The signals were filtered at 1 kHz and digitized at 4 kHz for the evoked EPSCs and 10 kHz for the sAP-mediated currents.
# (§2) Injection of viral solutions was performed as described previously with slight modifications. Briefly, under deep anesthesia, with an intraperitoneal injection of medetomidine (0.3 mg/kg), midazolam (4.0 mg/kg), and butorphanol (5.0 mg/kg), 4 µL of the solutions containing AAV mixture were directly injected into the vermis of cerebellar lobules V-VIII (200-300 µm in depth, 12 µL/h in rate) of WT mice (C57BL/6J, P20-P30) using glass pipette (30–40 µm in diameter) and microinjector (Nanoliter; World Precision Instruments). In all, 1−2 week after injection, the mice were used for each experiment.
# [2] = test system: Purkinje cells in cerebellar slices from mGlu1^CBC/CBC mice; experiment: chemLTD recording (PF-EPSC) in Purkinje cells of acute cerebellar slices, mGlu1^CBC/CBC mice; assay type: cell-based, mouse; settings: DHPG 50 μM for 10 min; t = 31−35 min
# Description: (§3) Sagittal cerebellar slices were cut with a microslicer (Linear slicer Pro7; DOSAKA EM) in cutting solution buffer and then incubated in ACSF gassed with 5% CO2 and 95% O2 at room temperature.
# (§4) Whole-cell patch-clamp recordings were made from visually identified Purkinje cells using a 60× water-immersion objective attached to an upright microscope (BX51WI, Olympus) at room temperature, as described previously. […] Picrotoxin (100 µM; Sigma) was always added to the saline to block inhibitory synaptic transmission.
# (§5) To evoke EPSCs derived from CF (CF-EPSCs) and PF (PF-EPSCs) inputs onto Purkinje cells, square pulses were applied through a stimulating electrode placed on the granular layer and the molecular layer (50 µm away from the pial surface), respectively. The selective stimulation of CFs and PFs was confirmed by the paired-pulse depression (PPD) and paired-pulse facilitation (PPF) of EPSC amplitudes at a 50-ms interstimulus interval (ISI), respectively.
# (§6) For the LTD sessions, PF-EPSCs were recorded successively at a frequency of 0.1 Hz from Purkinje cells clamped at –80 mV. After a stable PF-EPSC amplitude had been observed for at least 5 min, a conjunctive stimulation that consisted of 30 single PF stimuli together with a 200 ms depolarizing pulse from a holding potential of –60 to +20 mV was applied for LTD induction.
# (§7) To chemically induce LTD (chemLTD), 50 µM (S)-3,5-dihydroxyphenylglycine (DHPG) or 1 µM Pd(sulfo-bpy) was applied for 10 min in a current-clamp mode. We often observed a transient decrease in PF-EPSC amplitude after the application of each drug probably because Purkinje cells under current-clamp conditions excite spontaneously to suppress presynaptic function through the retrograde signaling. Access resistances were monitored every 10 s by measuring the peak currents in response to 2 mV, 50-ms hyperpolarizing steps throughout the experiments; the measurements were discarded if the resistance changed by >20% of its original value. The normalized EPSC amplitude on the ordinate represents the EPSC amplitude for the average of six traces for 1 min divided by that of the average of six traces for 1 min immediately before the conjunctive stimulation or the drug application.
# [3] = test system: Purkinje cells in cerebellar slices from mGlu1^+/+ mice; experiment: chemLTD recording (PF-EPSC) in Purkinje cells of acute cerebellar slices, mGlu1^+/+ mice; assay type: cell-based, mouse; settings: DHPG 50 μM for 10 min; t = 31−35 min
# Description: as §3, §4, §5, §6, §7
# [4] = test system: MLIs infected with AAV-hSyn-mGlu1^CBC; experiment: sAP-mediated currents (firing rate) of MLIs infected with AAV-hSyn-mGlu1^CBC; assay type: cell-based, mouse;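 as to Pd/CTL, AVE: 10 µM Pd complex applied to the bath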;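 as to Pd/CTL, individual MLIs: 10 µM Pd complex applied to the bath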;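 as to firing rate with Pd, AVE(Hz): 10 µM Pd complex applied to the bath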;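 as to number of sAP-mediated currents with Pd, AVE: 10 µM Pd complex applied to the bath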
# Description: as §1, §2
# [5] = target: T1, mGlu1 P58H/N264H mutant (Rattus norvegicus, UniProt P23385, N264H/P58H); experiment: Fura-2 Ca2+ imaging in HEK293 cells expressing mGlu1 P58H/N264H; assay type: cell-based; settings: 10 μM metal ion or metal complex
# T1 construct: expressed in transfected cells; host or cells: HEK293
# T1 sequence (P23385 19-1199 P58H/N264H): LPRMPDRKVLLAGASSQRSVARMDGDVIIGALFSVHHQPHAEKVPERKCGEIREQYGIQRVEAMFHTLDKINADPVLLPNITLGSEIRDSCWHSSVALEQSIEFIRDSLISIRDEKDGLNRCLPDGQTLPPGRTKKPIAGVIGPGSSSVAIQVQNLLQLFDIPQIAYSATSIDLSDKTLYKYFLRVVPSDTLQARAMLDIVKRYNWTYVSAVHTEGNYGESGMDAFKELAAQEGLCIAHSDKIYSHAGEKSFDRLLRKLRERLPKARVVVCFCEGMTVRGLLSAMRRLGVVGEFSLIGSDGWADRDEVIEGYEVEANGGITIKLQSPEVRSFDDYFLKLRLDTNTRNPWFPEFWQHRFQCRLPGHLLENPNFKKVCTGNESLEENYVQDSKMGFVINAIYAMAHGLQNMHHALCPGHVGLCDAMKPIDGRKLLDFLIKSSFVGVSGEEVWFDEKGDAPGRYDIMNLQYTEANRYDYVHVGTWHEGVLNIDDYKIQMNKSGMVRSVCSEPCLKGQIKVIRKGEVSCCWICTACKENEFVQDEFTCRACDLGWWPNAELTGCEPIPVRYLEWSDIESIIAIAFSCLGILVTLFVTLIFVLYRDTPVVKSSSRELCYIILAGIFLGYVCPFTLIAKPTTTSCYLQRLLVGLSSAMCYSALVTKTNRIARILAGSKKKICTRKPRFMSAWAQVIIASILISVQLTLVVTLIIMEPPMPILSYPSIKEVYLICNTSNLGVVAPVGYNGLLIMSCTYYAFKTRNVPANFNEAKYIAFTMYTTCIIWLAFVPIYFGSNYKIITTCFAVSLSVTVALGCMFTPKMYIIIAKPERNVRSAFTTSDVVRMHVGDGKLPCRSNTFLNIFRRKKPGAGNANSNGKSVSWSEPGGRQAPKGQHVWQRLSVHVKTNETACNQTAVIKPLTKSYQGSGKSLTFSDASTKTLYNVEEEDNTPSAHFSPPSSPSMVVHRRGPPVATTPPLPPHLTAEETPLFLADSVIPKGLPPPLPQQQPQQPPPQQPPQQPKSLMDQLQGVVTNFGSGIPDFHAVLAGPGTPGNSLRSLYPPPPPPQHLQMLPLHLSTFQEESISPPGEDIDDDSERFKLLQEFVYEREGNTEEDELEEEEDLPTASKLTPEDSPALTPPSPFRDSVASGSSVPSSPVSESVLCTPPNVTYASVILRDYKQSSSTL
# [6] = target: T2, mGlu1 K61H/N264H mutant (Rattus norvegicus, UniProt P23385, K61H/N264H); experiment: Fura-2 Ca2+ imaging in HEK293 cells expressing mGlu1 K61H/N264H; assay type: cell-based; settings: 10 μM metal ion or metal complex
# T2 construct: expressed in transfected cells; host or cells: HEK293
# T2 sequence (P23385 19-1199 K61H/N264H): as the sequence (P23385 19-1199 P58H/N264H) above, with H40P, K43H counted along it
# [7] = test system: MLIs surrounded by mGlu1(N264H)-expressing Purkinje cells (AAV-L7-mGlu1^CBC); experiment: sAP-mediated currents (firing rate) of MLIs in slices infected with AAV-L7-mGlu1^CBC; assay type: cell-based, mouse; settings: AAV-L7-mGlu1CBC;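 also: 10 µM Pd complex applied to the bath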
# Description: as §1, §2
# [8] = target: T3, mGlu1 E60H/N264H mutant (Rattus norvegicus, UniProt P23385, E60H/N264H); experiment: Fura-2 Ca2+ imaging in HEK293 cells expressing mGlu1 E60H/N264H; assay type: cell-based; settings: 10 μM metal ion or metal complex
# T3 construct: expressed in transfected cells; host or cells: HEK293
# T3 sequence (P23385 19-1199 E60H/N264H): as the sequence (P23385 19-1199 P58H/N264H) above, with H40P, E42H counted along it
# [9] = Suppl Fig14d, AAV-hSyn-mGlu1WT, mean of 12 cells
# [10] = Suppl Fig14d, AAV-hSyn-mGlu1CBC, mean of 15 cells
compound,measurement,setting,value
"N[C@H](C(=O)O)c1cc(O)cc(O)c1 [DHPG, (S)-3,5-dihydroxyphenylglycine]","firing rate, DHPG (50uM), AVE(Hz)","[1]; Suppl Fig14d, AAV-hSyn-mGlu1WT, mean",10.6722 Hz
same,"DHPG/CTL, AVE",[1]; [9],1.47
same,"sAP events, DHPG (50uM), AVE",[1]; [9],320.167
same,Number of spontaneous action potentials (sAP),[1]; bath application of 50 µM DHPG,clearly increased
same,chemLTD: normalized PF-EPSC amplitude,[2],56 ± 6%
same,chemLTD: normalized PF-EPSC amplitude,[3],55 ± 7%
same,"firing rate, DHPG (50uM), AVE(Hz)","[4]; Suppl Fig14d, AAV-hSyn-mGlu1CBC, mean",11.5511 Hz
same,"DHPG/CTL, AVE",[4]; [10],1.507
same,"sAP events, DHPG (50uM), AVE",[4]; [10],346.533
same,Number of spontaneous action potentials (sAP),[4]; bath application of 50 µM DHPG,clearly increased
[Pd+2] [Pd^2+],"firing rate with Pd, AVE(Hz)","[1]; AAV-hSyn-mGlu1WT, Pd",8.021 Hz
same,"number of sAP-mediated currents with Pd, individual MLIs","[1]; AAV-hSyn-mGlu1WT, Pd",195 and 227 and 165 and 235 and 230 and 276 and 213 and 238 and 272 and 431 and 142 and 211 and 228 and 253 and 240 and 294
same,"number of sAP-mediated currents with Pd, AVE","[1]; AAV-hSyn-mGlu1WT, Pd, average of 16 MLIs",240.625
same,"Pd/CTL, AVE","[1]; AAV-hSyn-mGlu1WT, average of 16 MLIs",1.02
same,"Pd/CTL, individual MLIs","[1]; AAV-hSyn-mGlu1WT, ratio of sAP-mediated currents Pd vs CTL",0.9466 and 0.8833 and 1.065 and 1.119 and 1.05 and 1.091 and 1.081 and 0.9958 and 0.8947 and 1.005 and 0.9161 and 0.8474 and 1.013 and 1.182 and 1.106 and 1.126
same,"firing rate with Pd, AVE(Hz)","[4]; AAV-hSyn-mGlu1CBC, Pd",9.847 Hz
same,"number of sAP-mediated currents with Pd, AVE","[4]; AAV-hSyn-mGlu1CBC, Pd, average of 22 MLIs",295.409
same,"Pd/CTL, AVE","[4]; AAV-hSyn-mGlu1CBC, average of 22 MLIs",1.392
same,"Pd/CTL, individual MLIs","[4]; AAV-hSyn-mGlu1CBC, ratio of sAP-mediated currents Pd vs CTL",1.204 and 2.167 and 1.052 and 0.9801 and 1.6822 and 1.455 and 1.074 and 1.288 and 1.082 and 1.081 and 1.083 and 2.412 and 1.119 and 3.478 and 1.177 and 1.12 and 1.045 and 1.16 and 1.215 and 1.142 and 1.333 and 1.265
same,"Receptor activation ([Ca2+]i change, Δratio)",[5],also activated
same,"Receptor activation ([Ca2+]i change, Δratio)",[6],also activated
same,"firing rate with Pd, AVE(Hz)",[7]; Pd,8.376 Hz
same,"number of sAP-mediated currents with Pd, individual MLIs",[7]; Pd,269 and 246 and 275 and 319 and 316 and 259 and 286 and 137 and 343 and 147 and 282 and 292 and 186
same,"number of sAP-mediated currents with Pd, AVE","[7]; Pd, average of 15 MLIs",251.267
same,"Pd/CTL, AVE",[7]; average of 15 MLIs,1.024
same,"Pd/CTL, individual MLIs",[7]; ratio of sAP-mediated currents Pd vs CTL,0.9181 and 1.134 and 0.9516 and 1.085 and 1.01 and 1.008 and 1.018 and 1.161 and 1.003 and 1.105 and 0.9786 and 0.9216 and 1.028 and 0.9928 and 1.051
same,"Receptor activation ([Ca2+]i change, Δratio)",[8],also activated
